# Laboratory results from publication PMC7117802 (ChemMedChem, 2020).
# Experiments:
# [1] = mouse, 1 μM, pH 7.4
# [2] = ref [2]; cited from earlier work
# in vitro = conditions: mouse, microsomes
# [3] = Metabolic stability in mouse liver microsomes with or without NADPH
# [4] = assay type: in vitro ADME, mouse; conditions: 1 μM, 37 °C
# [5] = Stability of DT3-F2 in microsomes over 60 min, normal phase LC-fluorescence; assay type: in vitro ADME, mouse; conditions: 37 °C, no NADPH, fluorescence detection
# [6] = Chemical stability in 15% aqueous NaOH; assay type: physicochemical; conditions: 30 min, data not shown
# [7] = Reactivity of model compound 3 with nucleophiles; assay type: physicochemical
# [8] = pH 7.4, % remaining at 30 min with NADPH
# [9] = pH 7.4, % remaining at 30 min without NADPH
smiles,measurement,setting,value
CC(C)=CCC/C(C)=C/CC/C(C)=C/CC[C@]1(C)CCc2cc(O)cc(C)c2O1 [δ-Tocotrienol],"Clin,u",[1],5240 ± 819.7 µL/min/mg
same,Plasma elimination half-life,[2],short
same,"remaining at 0.5 h, 1 μM",in vitro; [8],63.7 ± 6.7%
same,"remaining at 0.5 h, 1 μM",in vitro; [9],100 ± 6.6%
same,half-life at 1 μM,"[3]; mouse, microsomes, pH 7.4",1.8 ± 0.287 h
CC(C)=CCC/C(C)=C/CC/C(C)=C/CC[C@]1(C)CCc2cc(O)c(C)c(C)c2O1 [γ-tocotrienol],Plasma elimination half-life,[2],short
"C/C(=C\CC/C(C)=C/CC[C@]1(C)CCc2cc(O)cc(C)c2O1)CCC=C(CF)CF [DT3-F2 (1), (R)-2-((3E,7E)-13-Fluoro-12-(fluoromethyl)-4,8-dimethyltrideca-3,7,11-trien-1-yl)-2,8-dimethylchroman-6-ol]",Decrease of compound after incubation with active mouse liver microsomes,"[4]; 10 min, microsomes + buffer, no NADPH",~ 50%
same,"Degradation with mouse liver microsomes + NADPH, compared with microsomes alone","[4]; up to 10 min, NADPH present",More degradation
same,Stability in buffer (PBS) alone,"[4]; up to 10 min, PBS",stable
same,Parent peak after incubation in mouse liver microsomes,[5],no longer detectable
same,Stability when stirred in 15% aqueous NaOH,[6],remained intact
same,Degradation in mouse liver microsomes in the presence of NADPH (in words),"[3]; with NADPH, 30 min",exhausted (below detection limit)
same,Degradation in mouse liver microsomes in the absence of NADPH (in words),"[3]; without NADPH, 30 min",exhausted (below detection limit)
"C/C(=C\CS(=O)(=O)c1ccccc1)CCC=C(CF)CF [compound 3, (E)-((8-Fluoro-7-(fluoromethyl)-3-methylocta-2,6-dien-1-yl)sulfonyl) benzene]",Reaction with morpholine in HBD solvents,"[7]; hydrogen-bond donor solvents, 70 °C, Figure S3",able to react
same,Reaction with N-acetyl cysteine (NAC),"[7]; nucleophilic sulfide NAC, Figure S2",No reaction
CC(C)NCC(O)COc1cccc2ccccc12 (stereo not drawn) [Propranolol],half-life at 1 μM,in vitro; pH 7.4,0.417 ± 0.16 h
same,"remaining at 0.5 h, 1 μM",in vitro; [8],14.5 ± 10.4%
same,"remaining at 0.5 h, 1 μM",in vitro; [9],107 ± 8.9%
